Columns and labels:
[1] = test system: MCF7/ERα Y537S cells; test: Inhibitory activity on proliferation of ERα mutant-expressing MCF7 cells; format: cell-based; details: Homo sapiens, 144 h, 6 days incubation, CellTiter-Glo, read-out: IC50 (nM), inhibition of proliferation of ERα mutant-expressing MCF7 cells
Experimental: The objective of this experiment was to determine the inhibitory activity of the compounds of the present disclosure on the proliferation of ERα mutant-expressing MCF7 cells.
(§1) MCF7 cells expressing the ERα Y537S mutant were constructed by lentiviral infection. MCF7/ERα Y537S cells were cultured in an MEM (GE Healthcare, SH30024.01) complete medium containing 10% fetal bovine serum and 1 g/mL puromycin. On day 1 of the experiment, cells were seeded into a 96-well plate at a density of 3,000 cells/well using MEM containing 2% fetal bovine serum, with each well containing 135 µL of cell suspension. The plate was incubated in a 37° C., 5% CO2 cell incubator overnight. The next day, different concentrations of test compounds prepared in media were added at 15 μL/well. The final concentrations of the compounds were 9 concentration points obtained by 4-fold serial dilution from 1000 nM. A blank control containing 0.5% DMSO was set up. The plate was incubated in a 37° C., 5% CO2 cell incubator for 6 days. On day 8, the 96-well cell culture plate was taken out, and CellTiter-Glo® Luminescent Cell Viability Assay (Promega, G7573) was added at 75 µL/well. After the plate was left at room temperature for 10 min, luminescence signal readings were taken on a multilabel microplate reader (PerkinElmer, VICTOR 3). The IC50 values for the inhibitory activity of the compounds were calculated from the concentrations of the compounds and the luminescence signal readings using Graphpad Prism software.

[2] = test system: MCF7 cells; test: Inhibitory effects on MCF7 cell proliferation (CellTiter-Glo); format: cell-based; details: Homo sapiens, 144 h, 6 days incubation, read-out: IC50 (nM), inhibition of MCF7 cell proliferation
Experimental: as §1, with “(TCHu74, National Collection of Authenticated Cell Cultures)” for “expressing the ERα Y537S mutant were constructed by lentiviral infection. MCF7/ERα Y537S cells”, “serum.” for “serum and 1 g/mL puromycin.”, “experiment, MCF7” for “experiment,”, “μL” for “µL”, “μL/well.” for “µL/well.”

| IC50 [1] | IC50 [2] | SMILES |
| --- | --- | --- |
| 44.6 nM | 13.4 nM | C[C@H]1CCc2cc(O)ccc2[C@H]1c1ccc(N2CCC(CN3CCN(c4ccc5c(c4)CN([C@H]4CCC(=O)NC4=O)C5=O)CC3)CC2)cc1 [Example 27, (S)-3-(5-(4-((1-(4-((1R,2S)-6-Hydroxy-2-methyl-1,2,3,4-tetrahydronaphthalen-1-yl)phenyl)piperidin-4-yl)methyl)piperazin-1-yl)-1-oxoisoindolin-2-yl)piperidine-2,6-dione] |
| 5.21 nM | 1.51 nM | CC[C@H]1CCc2cc(O)ccc2[C@H]1c1ccc(N2CCC(CN3CCN(c4ccc5c(c4)CN([C@H]4CCC(=O)NC4=O)C5=O)CC3)CC2)cc1 [Example 28, (S)-3-(5-(4-((1-(4-((1R,2S)-6-Hydroxy-2-ethyl-1,2,3,4-tetrahydronaphthalen-1-yl)phenyl)piperidin-4-yl)methyl)piperazin-1-yl)-1-oxoisoindolin-2-yl)piperidine-2,6-dione] |
| 3.62 nM | 0.78 nM | CCC[C@H]1CCc2cc(O)ccc2[C@H]1c1ccc(N2CCC(CN3CCN(c4ccc5c(c4)CN([C@H]4CCC(=O)NC4=O)C5=O)CC3)CC2)cc1 [Example 29, (S)-3-(5-(4-((1-(4-((1R,2S)-6-Hydroxy-2-propyl-1,2,3,4-tetrahydronaphthalen-1-yl)phenyl)piperidin-4-yl)methyl)piperazin-1-yl)-1-oxoisoindolin-2-yl)piperidine-2,6-dione] |
| 12.7 nM | 3.02 nM | O=C1CC[C@H](N2Cc3cc(N4CCN(CC5CCN(c6ccc([C@@H]7c8ccc(O)cc8CC[C@@H]7Cc7ccccc7)cc6)CC5)CC4)ccc3C2=O)C(=O)N1 [Example 30, (S)-3-(5-(4-((1-(4-((1R,2R)-2-Benzyl-6-hydroxy-1,2,3,4-tetrahydronaphthalen-1-yl)phenyl)piperidin-4-yl)methyl)piperazin-1-yl)-1-oxoisoindolin-2-yl)piperidine-2,6-dione] |
| 28.8 nM | 8.34 nM | O=C1CC[C@H](N2Cc3cc(N4CCN(CC5CCN(c6ccc([C@@H]7c8ccc(O)cc8OC[C@@H]7C7CCC7)cc6)CC5)CC4)ccc3C2=O)C(=O)N1 [Example 32, (S)-3-(5-(4-((1-(4-((3R,4R)-3-Cyclobutyl-7-hydroxychroman-4-yl)phenyl)piperidin-4-yl)methyl)piperazin-1-yl)-1-oxoisoindolin-2-yl)piperidine-2,6-dione] |
| 8.48 nM | 3 nM | O=C1CC[C@H](N2Cc3cc(N4CCN(CC5CCN(c6ccc([C@@H]7c8ccc(O)cc8CC[C@@H]7CC7CCC7)cc6)CC5)CC4)ccc3C2=O)C(=O)N1 [Example 35, (S)-3-(5-(4-((1-(4-((1R,2R)-2-(Cyclobutylmethyl)-6-hydroxy-1,2,3,4-tetrahydronaphthalen-1-yl)phenyl)piperidin-4-yl)methyl)piperazin-1-yl)-1-oxoisoindolin-2-yl)piperidine-2,6-dione] |
| 5.27 nM | 1.46 nM | CC(C)C[C@H]1CCc2cc(O)ccc2[C@H]1c1ccc(N2CCC(CN3CCN(c4ccc5c(c4)CN([C@H]4CCC(=O)NC4=O)C5=O)CC3)CC2)c(F)c1 [Example 37, (S)-3-(5-(4-((1-(2-Fluoro-4-((1R,2R)-6-hydroxy-2-isobutyl-1,2,3,4-tetrahydronaphthalen-1-yl)phenyl)piperidin-4-yl)methyl)piperazin-1-yl)-1-oxoisoindolin-2-yl)piperidine-2,6-dione] |
| 13.8 nM | 4.64 nM | CCC(CC)C[C@H]1CCc2cc(O)ccc2[C@H]1c1ccc(N2CCC(CN3CCN(c4ccc5c(c4)CN([C@H]4CCC(=O)NC4=O)C5=O)CC3)CC2)cc1 [Example 38, (S)-3-(5-(4-((1-(4-((1R,2R)-6-Hydroxy-2-(2-ethylbutyl)-1,2,3,4-tetrahydronaphthalen-1-yl)phenyl)piperidin-4-yl)methyl)piperazin-1-yl)-1-oxoisoindolin-2-yl)piperidine-2,6-dione] |
| 15.8 nM | 5.23 nM | CC(C)(C)C[C@H]1CCc2cc(O)ccc2[C@H]1c1ccc(N2CCC(CN3CCN(c4ccc5c(c4)CN([C@H]4CCC(=O)NC4=O)C5=O)CC3)CC2)cc1 [Example 39, (S)-3-(5-(4-((1-(4-((1R,2R)-6-Hydroxy-2-neopentyl-1,2,3,4-tetrahydronaphthalen-1-yl)phenyl)piperidin-4-yl)methyl)piperazin-1-yl)-1-oxoisoindolin-2-yl)piperidine-2,6-dione] |
| 8.89 nM | 3.17 nM | CC(C)CC[C@H]1CCc2cc(O)ccc2[C@H]1c1ccc(N2CCC(CN3CCN(c4ccc5c(c4)CN([C@H]4CCC(=O)NC4=O)C5=O)CC3)CC2)cc1 [Example 40, (S)-3-(5-(4-((1-(4-((1R,2S)-6-Hydroxy-2-isopentyl-1,2,3,4-tetrahydronaphthalen-1-yl)phenyl)piperidin-4-yl)methyl)piperazin-1-yl)-1-oxoisoindolin-2-yl)piperidine-2,6-dione] |
| 36.3 nM | 3.57 nM | O=C1CC[C@@H](N2Cc3cc(N4CCN(CC5CCN(c6ccc([C@@H]7c8ccc(O)cc8CC[C@@H]7C7CCOCC7)cc6F)CC5)CC4)ccc3C2=O)C(=O)N1 [Example 43, (R)-3-(5-(4-((1-(2-Fluoro-4-((1R,2R)-6-hydroxy-2-(tetrahydro-2H-pyran-4-yl)-1,2,3,4-tetrahydronaphthalen-1-yl)phenyl)piperidin-4-yl)methyl)piperazin-1-yl)-1-oxoisoindolin-2-yl)piperidine-2,6-dione] |

| SMILES | IC50 [1] | IC50 [2] |
| --- | --- | --- |
| CC(C)C[C@H]1CCc2cc(O)ccc2[C@H]1c1ccc(N2CCC(CN3CCN(c4ccc5c(c4)CN([C@@H]4CCC(=O)NC4=O)C5=O)CC3)CC2)cc1 [Example 42, (R)-3-(5-(4-((1-(4-((1R,2R)-6-Hydroxy-2-isobutyl-1,2,3,4-tetrahydronaphthalen-1-yl)phenyl)piperidin-4-yl)methyl)piperazin-1-yl)-1-oxoisoindolin-2-yl)piperidine-2,6-dione] | 3.09 nM | 0.88 nM |
